This is an account of results in US12643879B2, “Functionalized heterocyclic compounds as modulators of stimulator of interferon genes (STING)” (RYVU THERAPEUTICS S.A., priority 2019, dated 2026).

Each structure is given as a SMILES string.

For one assay, the target named is human STING (Homo sapiens, UniProt Q86WV6). As to the kind of experiment: Fluorescence Thermal Shift assay (binding to STING). The settings on record: STING 0.1 mg/mL, SyproOrange, 25 to 99° C. The procedure: Compounds, constructs and conjugates of the present invention were tested for binding to human STING in Fluorescence Thermal Shift assay. STING was preincubated with the compounds for 20 minutes in 50 mM Hepes, 150 mM NaCl, pH 7.5 in 15 or 16 μl volume, following by adding 4 μl of SyproOrange dye dilution (ThermoFisher, cat no. S-6651). Final STING concentration was 0.1 mg/mL. Thermal unfolding was performed in Real-Time PCR QuantStudio 6 Flex System (Applied Biosystems), from 25 to 99° C., with continuous ramp mode and ramp rate 0.033° C./s. The data were analyzed using Protein Thermal Shift Software (ThermoFisher).

For assay [1], the system named is interferon regulatory factor (IRF) pathway in THP-1 dual cells. Kind of assay: THP-1 Dual reporter assay, IRF pathway (luciferase). The class given is cell-based. As to conditions: Homo sapiens, THP1-Dual; 18 h stimulation, luminescence; read-out: THP1 Dual EC50 (μM) IRF. The method, boiled down: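 Readouts come from THP-1 dual cell supernatant taken 18 h after STING agonist addition. SEAP activity is developed in detection medium for 1–2 h at 37° C and read at 630/655 nm; luciferase is read by luminescence immediately after reagent addition.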
In general terms: In a reporter assay the amount or activity of a reporter protein is the signal.

In assay [2] the test system is NF-κB pathway in THP-1 dual cells. As to the kind of experiment: THP-1 Dual reporter assay, NF-κB pathway (SEAP). It counts as cell-based. As to conditions: Homo sapiens, THP1-Dual; 18 h stimulation, absorbance at 630 or 655 nm; read-out: THP1 Dual EC50 (μM) NFkB. The gist of the method:
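Luminescence (IRF arm, luciferase under ISG54 minimal promoter with five ISREs) and absorbance at 630 or 655 nm (NF-κB arm, SEAP under IFN-β minimal promoter with NF-κB elements) were measured in supernatants of THP-1 dual cells stimulated 18 h with compound.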

Sequence of human STING (Q86WV6 whole entry H232R): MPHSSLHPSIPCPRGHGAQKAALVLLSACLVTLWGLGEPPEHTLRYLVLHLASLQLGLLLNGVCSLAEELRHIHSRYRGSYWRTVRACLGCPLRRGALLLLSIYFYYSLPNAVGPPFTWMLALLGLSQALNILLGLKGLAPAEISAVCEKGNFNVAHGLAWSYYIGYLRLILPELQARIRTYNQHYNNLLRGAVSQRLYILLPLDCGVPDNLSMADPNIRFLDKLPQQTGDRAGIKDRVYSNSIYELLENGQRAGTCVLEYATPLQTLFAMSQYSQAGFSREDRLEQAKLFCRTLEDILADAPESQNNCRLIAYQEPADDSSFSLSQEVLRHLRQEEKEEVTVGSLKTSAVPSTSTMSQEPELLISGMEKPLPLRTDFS

The EC50 is the concentration that produces a half-maximal response. `Cc1ccc(N2CCC[C@H](N(Cc3ccnc(C)c3)Cc3cn(C4CC4)c4cc(N5CC(N)C6(CC6)C5)c(F)cc4c3=O)C2)cn1.Cl` (stereo partly drawn) [Example 22, 7-{7-amino-5-azaspiro[2.4]heptan-5-yl}-1-cyclopropyl-6-fluoro-3-({[(3S)-1-(6-methylpyridin-3-yl)piperidin-3-yl][(2-methylpyridin-4-yl)methyl]amino}methyl)-1,4-dihydroquinolin-4-one hydrochloride]: the “hSTING FTS binding assay (ΔT C. °)” value on human STING is on record as “+++ (+++=ΔTm ≥20° C.)”. Moreover, the EC50 in assay [1] and in assay [2] was under 1 µM in each case.

In the case of `Cc1ccc(N2CCC[C@H](N(Cc3ccnc(C)c3)Cc3cn(C)c4cc(N5CC[C@@H](O)C5)ccc4c3=O)C2)cn1` [Example 23, 7-[(3R)-3-hydroxypyrrolidin-1-yl]-1-methyl-3-({[(3S)-1-(6-methylpyridin-3-yl)piperidin-3-yl][(2-methylpyridin-4-yl)methyl]amino}methyl)-1,4-dihydroquinolin-4-one], the “hSTING FTS binding assay (ΔT C. °)” value on human STING is “++ (++=10<ΔTm <20° C.)”. For the same molecule, the EC50 in assay [1] and in assay [2] was under 1 µM each time.

Turning to `Cc1ccc(N2CCC[C@H](N(Cc3ccnc(C)c3)Cc3cn(C4CC4)c4cc(N5CCC(N)C(F)(F)C5)c(F)cc4c3=O)C2)cn1` (stereo partly drawn) [Example 26, 7-(4-amino-3,3-difluoropiperidin-1-yl)-1-cyclopropyl-6-fluoro-3-({[(3S)-1-(6-methylpyridin-3-yl)piperidin-3-yl][(2-methylpyridin-4-yl)methyl]amino}methyl)-1,4-dihydroquinolin-4-one], on human STING, the “hSTING FTS binding assay (ΔT C. °)” value is reported as “+++ (+++=ΔTm ≥20° C.)”. In addition, the EC50 in assay [1] and in assay [2] was under 1 µM throughout.

Consider `Cc1ccc(N2CCC[C@H](N(Cc3ccnc(C)c3)Cc3cn(C4CC4)c4cc(N5CC(CO)C5)c(F)cc4c3=O)C2)cn1` [Example 27, 1-cyclopropyl-6-fluoro-7-[3-(hydroxymethyl)azetidin-1-yl]-3-({[(3S)-1-(6-methylpyridin-3-yl)piperidin-3-yl][(2-methylpyridin-4-yl)methyl]amino}methyl)-1,4-dihydroquinolin-4-one], for which the “hSTING FTS binding assay (ΔT C. °)” value at human STING is given as “+++ (+++=ΔTm ≥20° C.)”. In addition, the EC50 in assay [1] and in assay [2] was under 1 µM throughout.

On to `Cc1ccc(N2CCC[C@H](N(Cc3ccnc(C)c3)Cc3cn(C4CC4)c4cc(N5CCC[C@@H](O)C5)c(F)cc4c3=O)C2)cn1.Cl` [Example 28, 1-cyclopropyl-6-fluoro-7-[(3R)-3-hydroxypiperidin-1-yl]-3-({[(3S)-1-(6-methylpyridin-3-yl)piperidin-3-yl][(2-methylpyridin-4-yl)methyl]amino}methyl)-1,4-dihydroquinolin-4-one hydrochloride], for which the “hSTING FTS binding assay (ΔT C. °)” value on human STING is recorded as “+++ (+++=ΔTm ≥20° C.)”. The EC50 in assay [1] and in assay [2] was under 1 µM each time.

For `Cc1cc(CN(Cc2cn(C)c3cc(Br)ccc3c2=O)[C@H]2CCCN(c3ccc(N)nc3)C2)ccn1.Cl` [Example 29, 3-({[(3S)-1-(6-aminopyridin-3-yl)piperidin-3-yl][(2-methylpyridin-4-yl)methyl]amino}methyl)-7-bromo-1-methyl-1,4-dihydroquinolin-4-one hydrochloride], the “hSTING FTS binding assay (ΔT C. °)” value at human STING is reported as “+++ (+++=ΔTm ≥20° C.)”. Further, the EC50 in assay [1] and in assay [2] was under 1 µM throughout.

With `Cc1ccc(N2CCC[C@H](N(Cc3ccnc(C)c3)Cc3cn(C4CC4)c4cc(N5CCC(F)(CN)C5)c(F)cc4c3=O)C2)cn1` (stereo partly drawn) [Example 30, 7-[3-(aminomethyl)-3-fluoropyrrolidin-1-yl]-1-cyclopropyl-6-fluoro-3-({[(3S)-1-(6-methylpyridin-3-yl)piperidin-3-yl][(2-methylpyridin-4-yl)methyl]amino}methyl)-1,4-dihydroquinolin-4-one], the “hSTING FTS binding assay (ΔT C. °)” value on human STING was “+++ (+++=ΔTm ≥20° C.)”. Also, the EC50 in assay [1] and in assay [2] was under 1 µM each time.
